In patent US20240279233A1, “MACROCYCLIC TAK1 INHIBITORS” (Aqilion AB, priority 2021, published 2024):
≈ marks a conversion by molar mass, not a printed value. Like-named read-outs stand apart in the source and are kept apart here.

Experiments:
[1] = Solubility assay in phosphate buffer
Experimental: The aqueous solubility of selected example compounds was determined as follows; 6 μL of DMSO stock solution of the selected example was added to 594 μL phosphate buffer (100 mM, pH 7.4). The resulting mixture was equilibrated over night (20-24 h, Alligator Shaker, room temperature). The mixture was then filtered (Millex LH 0.45 μm) and the concentration/solubility was determined by LC-UV quantification.

[2] = molecular target: human recombinant TAK1-TAB1 Kinase (TAK1 (1-303) and TAB1 (437-end)) (Homo sapiens (Human), UniProt O43318); assay: TAK1 biochemical ADP-Glo kinase assay; details: MBP substrate
How it was run: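 Inhibition of human recombinant TAK1-TAB1 kinase was measured with a Promega ADP-Glo luminescence assay in 384-well plates. Compounds in 5% DMSO were pre-incubated 10 min with 2 μl TAK1-TAB1 (7.5 ng/μl) in buffer of Tris pH 7.5, MgCl2, DTT and BSA. MBP substrate and ATP were then added for 1 hour at room temperature. ADP-Glo reagent and kinase detection substrate followed, luminescence was read on an Envision, and IC50 came from non-linear regression.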

[3] = phosphate buffer, pH 7.4, aqueous buffer, kinetic from dmso stock, Solubility (μM), phosphate buffer 100 mM, pH 7.4, room temperature, 20-24 h, LC-UV
[4] = 10 μM ATP, read-out: TAK1 Mean IC50 (nM) @ 10 μM ATP
[5] = phosphate buffer 100 mM, pH 7.4, room temperature, 20-24 h, LC-UV
[6] = 1 mM ATP, read-out: TAK1 Mean IC50 (nM) @ 1 mM ATP

Sequence of human recombinant TAK1-TAB1 Kinase (TAK1 (1-303) and TAB1 (437-end)) (O43318 other isoform, or with tags, fused parts or gaps): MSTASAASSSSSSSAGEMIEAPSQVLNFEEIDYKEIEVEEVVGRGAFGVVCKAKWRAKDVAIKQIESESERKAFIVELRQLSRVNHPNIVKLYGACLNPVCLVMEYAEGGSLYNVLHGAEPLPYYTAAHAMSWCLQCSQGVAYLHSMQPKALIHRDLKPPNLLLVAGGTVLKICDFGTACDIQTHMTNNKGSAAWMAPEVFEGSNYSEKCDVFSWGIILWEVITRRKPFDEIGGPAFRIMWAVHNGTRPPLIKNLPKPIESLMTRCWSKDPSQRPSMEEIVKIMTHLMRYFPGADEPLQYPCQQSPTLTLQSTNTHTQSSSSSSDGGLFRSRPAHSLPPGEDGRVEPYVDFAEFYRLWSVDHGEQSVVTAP

Row | solubility [1, 3] [µM] | IC50 [2, 4] [nM] | solubility [1, 5] [µM] | IC50 [2, 6] [nM] | SMILES | solubility ([1]; phosphate buffer, pH 7.4, aqueous buffer, kinetic from dmso stock) [µM]
1 | 78.8 (≈ 36.3 µg/mL) | 3 |  |  | O=C1NCCCCCn2c(nc3cc(C(=O)N4CCNCC4)ccc32)NC(=O)c2cccc1c2 [Example 16, 1^5-(piperazine-1-carbonyl)-1^1H-2,6-diaza-1(2,1)-benzo[d]imidazola-4(1,3)-benzenacycloundecaphane-3,5-dione] | 
2 |  | 1 | 24.0 (≈ 11.1 µg/mL) |  | CC(C)N(C)C(=O)c1cccc2c1N1/C(=N/C(=O)c3cccc(c3)C(=O)NCCCCC1C)N2 (stereo not drawn) [Example 48, (E)-N-isopropyl-N,11-dimethyl-3,5-dioxo-1^2,1^3-dihydro-1^1H-2,6-diaza-1(2,1)-benzo[d]imidazola-4(1,3)-benzenacycloundecaphane-1^7-carboxamide] | 
3 |  | 16 | 7.1 (≈ 3.32 µg/mL) |  | C[C@@H]1CCCCNC(=O)c2cccc(c2)C(=O)Nc2nc3ccc(Cl)c(C(=O)N(C)C)c3n21 [Example 56, (R,E)-1^6-chloro-N,N,11-trimethyl-3,5-dioxo-1^2,1^3-dihydro-1^1H-2,6-diaza-1(2,1)-benzo[d]imidazola-4(1,3)-benzenacycloundecaphane-1^7-carboxamide] | 
4 |  | 6 | 74.0 (≈ 34.6 µg/mL) |  | C[C@@H]1CCCCNC(=O)c2cccc(c2)C(=O)Nc2nc3ccc(Cl)c(C(=O)N(C)C)c3n21 [Example 55, (R,E)-1^6-chloro-N,N,11-trimethyl-3,5-dioxo-1^2,1^3-dihydro-1^1H-2,6-diaza-1(2,1)-benzo[d]imidazola-4(1,3)-benzenacycloundecaphane-1^7-carboxamide] | 
5 | 89 (≈ 43.6 µg/mL) | 18 |  |  | CC1CCCCNC(=O)c2cccc(c2)C(=O)/N=C2\Nc3cccc(C(=O)N4CCOC[C@H]4C)c3N21 (single isomer, unassigned) [Example 76] | 
6 | 89 (≈ 43.6 µg/mL) | 3 |  |  | COC1(C)CN(C(=O)c2cccc3c2N2/C(=N/C(=O)c4cccc(c4)C(=O)NCCCCC2C)N3)C1 (stereo not drawn) [Example 49, (E)-1^7-(3-methoxy-3-methylazetidine-1-carbonyl)-11-methyl-1^2,1^3-dihydro-1^1H-2,6-diaza-1(2,1)-benzo[d]imidazola-4(1,3)-benzenacycloundecaphane-3,5-dione] | 
7 | 95 (≈ 47.6 µg/mL) | 6 |  |  | C[C@@H]1CCCCNC(=O)c2cccc(c2)C(=O)/N=C2\Nc3cccc(C(=O)N4C[C@H]5C[C@@H]4CN5C)c3N21 [Example 29, (R, E)-11-methyl-1^7-((1R,4R)-5-methyl-2,5-diazabicyclo[2.2.1]heptane-2-carbonyl)-1^2,1^3-dihydro-1^1H-2,6-diaza-1(2,1)-benzo[d]imidazola-4(1,3)-benzenacycloundecaphane-3,5-dione] | 
8 | 5 (≈ 2.37 µg/mL) | 4 |  |  | CN1CCN(C(=O)c2ccc3nc4n(c3c2)CCCCCNC(=O)c2cccc(c2)C(=O)N4)CC1 [Example 97, (E)-1^6-(4-methylpiperazine-1-carbonyl)-1^2,1^3-dihydro-1^1H-2,6-diaza-1(2,1)-benzo[d]imidazola-4(1,3)-benzenacycloundecaphane-3,5-dione] | 
9 | 82 (≈ 39.9 µg/mL) | 2 |  |  | CN1C[C@H]2C[C@@H]1CN2C(=O)c1cccc2c1N1CCCCCNC(=O)c3cccc(c3)C(=O)/N=C/1N2 [Example 25, (E)-1^7-((1R,4R)-5-methyl-2,5-diazabicyclo[2.2.1]heptane-2-carbonyl)-1^2,1^3-dihydro-1^1H-2,6-diaza-1(2,1)-benzo[d]imidazola-4(1,3)-benzenacycloundecaphane-3,5-dione] | 
10 | 74 (≈ 31 µg/mL) | 4 |  |  | CC(=O)Nc1cccc2c1N1/C(=N/C(=O)c3cccc(c3)C(=O)NCCCCC1C)N2 (stereo not drawn) [Example 45, (E)-N-(11-methyl-3,5-dioxo-1^2,1^3-dihydro-1^1H-2,6-diaza-1(2,1)-benzo[d]imidazola-4(1,3)-benzenacycloundecaphane-1^7-yl)acetamide] | 
11 | 4.7 (≈ 2.08 µg/mL) | 5 |  | 9 | C[C@H]1CCCCNC(=O)c2cccc(c2)C(=O)/N=C2\Nc3cccc(-c4cn(C)nn4)c3N21 [Example 87, (S,E)-11-methyl-1^7-(1-methyl-1H-1,2,3-triazol-4-yl)-1^2,1^3-dihydro-1^1H-2,6-diaza-1(2,1)-benzo[d]imidazola-4(1,3)-benzenacycloundecaphane-3,5-dione] | 
12 | 20.8 (≈ 9.58 µg/mL) | 8 |  |  | CN1CCN(Cc2ccc3c(c2)N2CCCCCNC(=O)c4cccc(c4)C(=O)/N=C/2N3)CC1 [Example 101, (E)-1^6-((4-methylpiperazin-1-yl)methyl)-1^2,1^3-dihydro-1^1H-2,6-diaza-1(2,1)-benzo[d]imidazola-4(1,3)-benzenacycloundecaphane-3,5-dione] | 
13 |  | 7 |  | 9 | C[C@H]1CCCCNC(=O)c2cccc(c2)C(=O)/N=C2\Nc3cc(CN4CCN(C)CC4)cc(C(=O)N(C)C)c3N21 [Example 124, (S,E)-N,N,11-trimethyl-1^5-((4-methylpiperazin-1-yl)methyl)-3,5-dioxo-1^2,1^3-dihydro-1^1H-2,6-diaza-1(2,1)-benzo[d]imidazola-4(1,3)-benzenacycloundecaphane-1^7-carboxamide] | 
14 |  | 6 |  |  | C[C@@H]1CCCCNC(=O)c2cccc(c2)C(=O)Nc2nc3cccc(-c4ncn(C)n4)c3n21 [Example 83, (R)-11-methyl-1^7-(1-methyl-1H-1,2,4-triazol-3-yl)-1^1H-2,6-diaza-1(2,1)-benzo[d]imidazola-4(1,3)-benzenacycloundecaphane-3,5-dione] | 
15 |  |  |  | 10 | C[C@H]1CCCCNC(=O)c2cccc(c2)C(=O)/N=C2\Nc3cccc(C(=O)N4CC5(COC5)C4)c3N21 [Example 114, (S,E)-11-methyl-1^7-(2-oxa-6-azaspiro[3.3]heptane-6-carbonyl)-1^2,1^3-dihydro-1^1H-2,6-diaza-1(2,1)-benzo[d]imidazola-4(1,3)-benzenacycloundecaphane-3,5-dione] | 
16 |  | 6 |  |  | CC1CCCCNC(=O)c2cccc(c2)C(=O)Nc2nc3cccc(-c4nccn4C(F)F)c3n21 (stereo not drawn) [Example 90, (E)-1^7-(1-(difluoromethyl)-1H-imidazol-2-yl)-11-methyl-1^2,1^3-dihydro-1^1H-2,6-diaza-1(2,1)-benzo[d]imidazola-4(1,3)-benzenacycloundecaphane-3,5-dione] | 
17 |  |  |  | 23 | CC1CCCCNC(=O)c2nc(cs2)C(=O)/N=C2\Nc3cccc(C(=O)N(C)C)c3N21 (single isomer, unassigned) [Example 108, (1^2Z,4^2E)-N,N,5-trimethyl-2,11-dioxo-4^2,4^3-dihydro-4^1H-3,10-diaza-1(4,2)-thiazola-4(2,1)-benzo[d]imidazolacycloundecaphane-4^7-carboxamide] | 
18 |  | 5 |  |  | C[C@@H]1CCCCNC(=O)c2cccc(c2)C(=O)/N=C2\Nc3cccc(C(=O)N4CC(C)(O)C4)c3N21 [Example 94, (R,E)-1^7-(3-hydroxy-3-methylazetidine-1-carbonyl)-11-methyl-1^2,1^3-dihydro-1^1H-2,6-diaza-1(2,1)-benzo[d]imidazola-4(1,3)-benzenacycloundecaphane-3,5-dione] | 
19 |  | 7 |  |  | CC1CCCCNC(=O)c2cccc(c2)C(=O)/N=C2\Nc3cccc(C(=O)N4CC5(COC5)C4)c3N21 (stereo not drawn) [Example 42, (E)-11-methyl-1^7-(2-oxa-6-azaspiro[3.3]heptane-6-carbonyl)-1^2,1^3-dihydro-1^1H-2,6-diaza-1(2,1)-benzo[d]imidazola-4(1,3)-benzenacycloundecaphane-3,5-dione] | 
20 |  | 6 |  | 6 | C[C@H]1CCCCNC(=O)c2cccc(c2)C(=O)/N=C2\Nc3cccc(-c4cn(C5COC5)nn4)c3N21 [Example 129, (S,E)-11-methyl-1^7-(1-(oxetan-3-yl)-1H-1,2,3-triazol-4-yl)-1^2,1^3-dihydro-1^1H-2,6-diaza-1(2,1)-benzo[d]imidazola-4(1,3)-benzenacycloundecaphane-3,5-dione] | 
21 |  | 4 |  |  | CC1CCCCNC(=O)c2cccc(c2)C(=O)/N=C2\Nc3cccc(C4CCCNC4=O)c3N21 (single isomer, unassigned) [Example 61, (E)-11-methyl-1^7-(2-oxopiperidin-3-yl)-1^2,1^3-dihydro-1^1H-2,6-diaza-1(2,1)-benzo[d]imidazola-4(1,3)-benzenacycloundecaphane-3,5-dione] | 
22 |  | 6 |  | 27 | CC1CCCCNC(=O)c2cccc(c2)C(=O)/N=C2\Nc3cccc(C(=O)N(C)CCF)c3N21 (single isomer, unassigned) [Example 71, (E)-N-(2-fluoroethyl)-N,11-dimethyl-3,5-dioxo-1^2,1^3-dihydro-1^1H-2,6-diaza-1(2,1)-benzo[d]imidazola-4(1,3)-benzenacycloundecaphane-1^7-carboxamide] | 

Row | SMILES | solubility [1, 3] [µM] | IC50 [2, 4] [nM] | solubility [1, 5] [µM] | IC50 [2, 6] [nM] | solubility ([1]; phosphate buffer, pH 7.4, aqueous buffer, kinetic from dmso stock) [µM]
23 | CC1CCCCNC(=O)c2cccc(c2)C(=O)/N=C2\Nc3cccc(C(=O)N4CC5(CCO5)C4)c3N21 (single isomer, unassigned) [Example 79, (E)-11-methyl-1^7-(1-oxa-6-azaspiro[3.3]heptane-6-carbonyl)-1^2,1^3-dihydro-1^1H-2,6-diaza-1(2,1)-benzo[d]imidazola-4(1,3)-benzenacycloundecaphane-3,5-dione] |  | 6 |  | 7 | 90 (≈ 43.9 µg/mL)
24 | CC1CCCCNC(=O)c2cccc(c2)C(=O)/N=C2\Nc3cccc(C(=O)N4CC5(CCO5)C4)c3N21 (single isomer, unassigned) [Example 80, (E)-11-methyl-1^7-(1-oxa-6-azaspiro[3.3]heptane-6-carbonyl)-1^2,1^3-dihydro-1^1H-2,6-diaza-1(2,1)-benzo[d]imidazola-4(1,3)-benzenacycloundecaphane-3,5-dione] |  | 5 |  |  | 
